Laboratory results as given in patent publication US20130310379A1, “MODULATORS OF METHYL MODIFYING ENZYMES, COMPOSITIONS AND USES THEREOF” (CONSTELLATION PHARMACEUTICALS, priority 2010, published 2013).

The compounds below were run against EZH2 (Homo sapiens, UniProt Q15910) (assay: EZH2 assay: rPRC2 with biotinylated oligonucleosome substrates and 3H SAM, FlashPlate scintillation counting, IC50). Conditions: rPRC2, biotinylated oligonucleosome substrates, 3H SAM; read-out: EZH2 IC50.
Sequence of EZH2 (Q15910 whole entry): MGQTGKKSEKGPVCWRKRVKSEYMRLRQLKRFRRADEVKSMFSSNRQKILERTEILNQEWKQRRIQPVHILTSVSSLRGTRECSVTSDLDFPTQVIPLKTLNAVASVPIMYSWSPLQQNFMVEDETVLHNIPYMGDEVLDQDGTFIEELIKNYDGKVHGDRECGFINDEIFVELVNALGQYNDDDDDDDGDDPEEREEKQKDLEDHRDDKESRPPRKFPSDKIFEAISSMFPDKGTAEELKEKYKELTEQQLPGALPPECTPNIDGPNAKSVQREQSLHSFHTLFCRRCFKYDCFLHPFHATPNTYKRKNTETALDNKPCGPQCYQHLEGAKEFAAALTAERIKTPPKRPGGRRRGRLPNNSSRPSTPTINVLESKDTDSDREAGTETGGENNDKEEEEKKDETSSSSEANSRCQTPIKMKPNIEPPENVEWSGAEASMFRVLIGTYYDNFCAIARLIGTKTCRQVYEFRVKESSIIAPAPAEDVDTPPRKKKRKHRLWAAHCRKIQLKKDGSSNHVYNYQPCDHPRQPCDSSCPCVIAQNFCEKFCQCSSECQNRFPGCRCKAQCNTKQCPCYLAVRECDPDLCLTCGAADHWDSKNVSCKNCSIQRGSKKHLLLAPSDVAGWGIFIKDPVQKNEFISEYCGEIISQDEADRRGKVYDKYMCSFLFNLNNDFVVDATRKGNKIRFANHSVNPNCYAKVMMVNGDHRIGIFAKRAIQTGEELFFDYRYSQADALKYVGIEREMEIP
Sequence of EZH2 (O75530 whole entry partner): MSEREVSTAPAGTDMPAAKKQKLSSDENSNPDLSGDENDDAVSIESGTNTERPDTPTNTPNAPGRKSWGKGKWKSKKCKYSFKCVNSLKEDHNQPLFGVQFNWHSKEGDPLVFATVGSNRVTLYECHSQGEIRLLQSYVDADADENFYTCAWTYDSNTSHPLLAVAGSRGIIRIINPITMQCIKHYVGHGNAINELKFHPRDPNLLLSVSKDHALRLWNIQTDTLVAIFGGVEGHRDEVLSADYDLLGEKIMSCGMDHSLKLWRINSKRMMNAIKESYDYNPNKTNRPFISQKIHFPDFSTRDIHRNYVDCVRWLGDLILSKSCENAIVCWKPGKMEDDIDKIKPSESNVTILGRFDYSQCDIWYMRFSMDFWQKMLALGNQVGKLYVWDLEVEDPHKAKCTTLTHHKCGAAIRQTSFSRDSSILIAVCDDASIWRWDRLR
Sequence of EZH2 (Q15022 whole entry partner): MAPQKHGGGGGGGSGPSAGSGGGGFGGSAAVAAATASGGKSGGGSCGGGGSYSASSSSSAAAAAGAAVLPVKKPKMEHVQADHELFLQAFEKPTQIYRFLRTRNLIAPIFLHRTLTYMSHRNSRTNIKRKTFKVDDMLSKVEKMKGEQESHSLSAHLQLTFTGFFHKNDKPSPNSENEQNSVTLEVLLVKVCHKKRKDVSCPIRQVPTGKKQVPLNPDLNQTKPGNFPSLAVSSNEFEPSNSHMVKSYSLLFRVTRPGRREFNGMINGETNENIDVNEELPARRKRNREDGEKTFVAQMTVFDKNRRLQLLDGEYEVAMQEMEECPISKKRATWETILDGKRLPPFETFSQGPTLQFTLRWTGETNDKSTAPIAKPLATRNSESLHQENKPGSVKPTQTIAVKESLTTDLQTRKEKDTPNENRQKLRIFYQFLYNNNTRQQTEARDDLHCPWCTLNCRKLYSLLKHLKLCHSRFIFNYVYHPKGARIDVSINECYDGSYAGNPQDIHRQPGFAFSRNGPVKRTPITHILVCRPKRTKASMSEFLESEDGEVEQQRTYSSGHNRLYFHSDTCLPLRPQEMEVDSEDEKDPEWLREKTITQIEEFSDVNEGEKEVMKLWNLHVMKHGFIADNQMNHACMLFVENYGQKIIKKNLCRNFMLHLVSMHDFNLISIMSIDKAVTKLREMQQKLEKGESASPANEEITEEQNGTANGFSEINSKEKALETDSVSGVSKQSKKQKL
Assay type: biochemical
Procedure, shortened: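 IC50 from 4-parameter fit, baselines fixed at 0 and 100%. Compounds (top 80 uM, 2-fold series to 0.16 uM) pre-incubated 20 min with 2 nM EZH2-PRC2; 60-min methylation in pH 8.5 Tris with 0.2 uM 3H SAM, 0.2 uM oligonucleosomes, 3.6 uM H3K27me3 peptide.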
An IC50 of less than 5 µM was found for CC1(C)CC(NC(=O)c2ccc(Oc3cccc(C4CCNCC4)c3C#N)cc2)CC(C)(C)N1 [Compound I-534] in this work.
An IC50 greater than 80 µM was found for O=C(NC1CCCCC1)c1ccc(Oc2ccccc2)cc1 [Compound I-134] in this work.
An IC50 greater than 80 µM was found for CC1(C)CC(NC(=O)c2ccc(Oc3ccccc3C(=O)O)c(Cl)c2)CC(C)(C)N1 [Compound I-353] in this work.
An IC50 of less than 5 µM was found for CC1(C)CC(NC(=O)c2ccc(Oc3cccc(-c4ccc(C#N)cc4)c3C#N)c(Cl)c2)CC(C)(C)N1 [Compound I-506] in this work.
An IC50 of 5 to 20 µM was found for CC1(C)CC(NC(=O)c2ccc(Oc3ccccc3C(C)(C)C)cc2)CC(C)(C)N1 [Compound I-151] in this work.
An IC50 greater than 80 µM was found for CC1(C)CC(NC(=O)c2ccc(OCc3cccc(F)c3)cc2)CC(C)(C)N1 [Compound I-88] in this work.
An IC50 greater than 80 µM was found for COc1ccncc1-c1ccccc1Oc1ccc(C(=O)NC2CC(C)(C)NC(C)(C)C2)cc1Cl [Compound I-280] in this work.
An IC50 greater than 80 µM was found for CC1(C)CC(NC(=O)c2ccc(Oc3ccccc3C#N)c(Cl)c2)CC(C(=O)O)N1 (centres unmarked) [Compound I-419] in this work.
An IC50 of less than 5 µM was found for CC(=O)NCc1cccc(Oc2ccc(C(=O)NC3CC(C)(C)NC(C)(C)C3)cc2Cl)c1 [Compound I-430] in this work.
An IC50 greater than 80 µM was found for CC1(C)CC(NC(=O)c2ccc(COc3cccc(N4CCNCC4)c3)cc2)CC(C)(C)N1 [Compound I-165] in this work.
An IC50 of 20 to 80 µM was found for CC1(C)CC(NC(=O)c2ccc(Oc3ccccc3C#N)c(Cl)c2)C(F)C(C)(C)N1 (centres unmarked) [Compound I-434] in this work.
An IC50 of less than 5 µM was found for CC1(C)CC(NC(=O)c2ccc(Oc3cccc(-c4cncc(F)c4)c3C#N)c(Cl)c2)CC(C)(C)N1 [Compound I-528] in this work.
An IC50 greater than 80 µM was found for CC1(C)CC(NC(=O)c2ccc(CCOc3ccccc3)cc2)CC(C)(C)N1 [Compound I-292] in this work.
An IC50 of less than 5 µM was found for COc1cncc(-c2ccccc2Oc2ccc(C(=O)NC3CC(C)(C)NC(C)(C)C3)cc2Cl)c1 [Compound I-288] in this work.
An IC50 greater than 80 µM was found for Cc1cccc(OCc2ccc(C(=O)NC3CC(C)(C)NC(C)(C)C3)cc2)n1 [Compound I-85, 4-((6-methylpyridin-2-yloxy)methyl)-N-(2,2,6,6-tetramethylpiperidin-4-yl)benzamide] in this work.
An IC50 greater than 80 µM was found for CC1(C)CC(NC(=O)c2ccc(OC3CCCNC3)c(Cl)c2)CC(C)(C)N1 (centres unmarked) [Compound I-393] in this work.
An IC50 greater than 80 µM was found for CN(C)CCCNC(=O)c1ccc(Oc2ccccc2)cc1 [Compound I-140] in this work.
An IC50 of 5 to 20 µM was found for Cc1ccc(OCc2ccc(C(=O)NC3CC(C)(C)NC(C)(C)C3)cc2)cc1C [Compound I-15] in this work.
An IC50 of less than 5 µM was found for Cc1cc(C(=O)NC2CC(C)(C)NC(C)(C)C2)ccc1Oc1cccc(-c2ccnnc2)c1C#N [Compound I-508] in this work.
An IC50 of 20 to 80 µM was found for Cc1ccc(OCc2ccc(C(=O)NC3CC(C)(C)NC(C)(C)C3)cc2)c(C)c1 [Compound I-42] in this work.
An IC50 of 20 to 80 µM was found for CC1(C)CC(NC(=O)c2ccc(Oc3cccc(-c4ccnnc4)c3C#N)c(Cl)c2)CC(C)(C)[S+]1[O-] (centres unmarked) [Compound I-518] in this work.
An IC50 greater than 80 µM was found for CC1(C)CC(NC(=O)c2ccc(COc3ccncc3)cc2)CC(C)(C)N1 [Compound I-112] in this work.
An IC50 of 20 to 80 µM was found for CC1CC(NC(=O)c2ccc(Oc3ccccc3C#N)c(Cl)c2)CC(C)N1 (centres unmarked) [Compound I-467] in this work.
An IC50 of 20 to 80 µM was found for Cc1cc(C(=O)NC2CC(C)(C)NC(C)(C)C2)ccc1Oc1ccccc1 [Compound I-24] in this work.
An IC50 greater than 80 µM was found for CC1(C)CC(NC(=O)c2ccc(OCc3ccc([N+](=O)[O-])cc3)cc2)CC(C)(C)N1 [Compound I-81] in this work.
An IC50 of 20 to 80 µM was found for Cc1cccc(OCc2ccc(C(=O)NC3CC(C)(C)NC(C)(C)C3)cc2)c1 [Compound I-46, N-(2,2,6,6-tetramethylpiperidin-4-yl)-4-(m-tolyloxymethyl)benzamide] in this work.
An IC50 greater than 80 µM was found for N#Cc1c(Oc2ccc(C(=O)NC3CCNCC3)cc2Cl)cccc1-c1cn[nH]c1 [Compound I-373] in this work.
An IC50 of 5 to 20 µM was found for Cc1ccc(-c2cccc(OCc3ccc(C(=O)NC4CC(C)(C)NC(C)(C)C4)cc3)c2)cn1 [Compound I-14] in this work.
An IC50 of less than 5 µM was found for CC1(C)CC(NC(=O)c2ccc(Oc3cccc(-c4cccc(C#N)c4)c3C#N)c(Cl)c2)CC(C)(C)N1 [Compound I-505] in this work.
An IC50 greater than 80 µM was found for CC1(C)CC(NC(=O)c2ccc(Oc3ccc(F)cc3)cc2)CC(C)(C)N1 [Compound I-86] in this work.
An IC50 greater than 80 µM was found for CN(C(=O)c1ccc(COc2cccc(Br)c2)cc1)C1CCNCC1 [Compound I-126] in this work.
An IC50 greater than 80 µM was found for N#Cc1ccccc1Oc1ccc(C(=O)N[C@H]2C[C@H]3CC[C@@H](C2)N3)cc1Cl [Compound I-408] in this work.
An IC50 of 5 to 20 µM was found for CC1(C)CC(NC(=O)c2ccc(N3CCc4cccc(O)c4C3=O)c(Cl)c2)CC(C)(C)N1 [Compound I-498] in this work.
An IC50 greater than 80 µM was found for CC1(C)CC(NC(=O)c2ccc(Oc3ccccc3-c3nn[nH]n3)c(Br)c2)CC(C)(C)N1 [Compound I-282] in this work.
An IC50 of 20 to 80 µM was found for Cc1ncccc1-c1cccc(OCc2ccc(C(=O)NC3CC(C)(C)NC(C)(C)C3)cc2)c1 [Compound I-58] in this work.
An IC50 of 5 to 20 µM was found for CC1(C)CC(NC(=O)c2ccc(COc3cccc4ncccc34)cc2)CC(C)(C)N1 [Compound I-190] in this work.
An IC50 of less than 5 µM was found for CC1(C)CC(NC(=O)c2ccc(Oc3cccc(-c4cnc(N)nc4)c3C#N)c(Cl)c2)CC(C)(C)N1 [Compound I-538] in this work.
An IC50 greater than 80 µM was found for CN1CCC(NC(=O)c2ccc(Oc3cccc(-c4ccnnc4)c3C#N)c(Cl)c2)CC1 [Compound I-465] in this work.
An IC50 of less than 5 µM was found for CC1(C)CC(NC(=O)c2ccc(Oc3cccc(C(F)(F)F)c3C#N)c(Cl)c2)CC(C)(C)N1 [Compound I-311] in this work.
An IC50 of 20 to 80 µM was found for CC1(C)CC(NC(=O)c2ccc(COc3cccc(-c4ccc(=O)[nH]c4)c3)cc2)CC(C)(C)N1 [Compound I-65] in this work.
An IC50 greater than 80 µM was found for COc1ccnc(Oc2ccc(C(=O)NC3CC(C)(C)NC(C)(C)C3)cc2)n1 [Compound I-109] in this work.
An IC50 greater than 80 µM was found for CC1(C)CC(NC(=O)c2ccc(C(C)(C)C)cc2)CC(C)(C)N1 [Compound I-138] in this work.
An IC50 of less than 5 µM was found for CC1(C)CC(NC(=O)c2ccc(Oc3ccccc3C#N)c(C3CC3)c2)CC(C)(C)N1 [Compound I-221] in this work.
An IC50 of less than 5 µM was found for CC1(C)CC(NC(=O)c2ccc(Oc3cccc(C4CCCN4)c3C#N)c(Cl)c2)CC(C)(C)N1 (centres unmarked) [Compound I-562] in this work.
An IC50 of 5 to 20 µM was found for CC1(C)CC(NC(=O)c2ccc(Oc3ccccc3C#N)c(Cl)c2)CCN1 (centres unmarked) [Compound I-503] in this work.
An IC50 of less than 5 µM was found for COCCNC(=O)CCc1cccc(Oc2ccc(C(=O)NC3CC(C)(C)NC(C)(C)C3)cc2Cl)c1C#N [Compound I-554] in this work.
An IC50 of less than 5 µM was found for CC1(C)CC(NC(=O)c2ccc(Oc3cccc(N4CCOCC4)c3C#N)c(Cl)c2)CC(C)(C)N1 [Compound I-391] in this work.
An IC50 of 20 to 80 µM was found for CC1(C)CC(NC(=O)c2ccc(N3C(=O)COc4ccccc43)c(Cl)c2)CC(C)(C)N1 [Compound I-522] in this work.
An IC50 of 5 to 20 µM was found for CC1CC(NC(=O)c2ccc(Oc3ccccc3C#N)c(Cl)c2)CC(C)(C)N1 (centres unmarked) [Compound I-461] in this work.
An IC50 greater than 80 µM was found for CNc1cccc(OCc2ccc(C(=O)NC3CC(C)(C)NC(C)(C)C3)cc2)n1 [Compound I-121, 4-(((6-(methylamino)pyridin-2-yl)oxy)methyl)-N-(2,2,6,6-tetramethylpiperidin-4-yl)benzamide] in this work.
An IC50 of 20 to 80 µM was found for Cc1ccc(C#N)c(Oc2ccc(C(=O)NC3CC(C)(C)NC(C)(C)C3)cc2)c1 [Compound I-158] in this work.
An IC50 of 20 to 80 µM was found for Cc1cccc(Oc2ccc(C(=O)NC3CC(C)(C)NC(C)(C)C3)cc2)c1 [Compound I-60] in this work.
An IC50 of less than 5 µM was found for CC1(C)CC(NC(=O)c2ccc(Oc3ccccc3-c3ncco3)c(Cl)c2)CC(C)(C)N1 [Compound I-253] in this work.
